According to US20260049071A1, “PROTEIN TYROSINE KINASE INHIBITOR AND MEDICAL USE THEREOF” (BEYANG THERAPEUTICS CO., LTD., priority 2022, published 2026):

Experiments:
[1] = target: VEGFR2 autophosphorylation (pVEGFR2) in HUVEC cells (Homo sapiens (Human), UniProt P35968); assay: Inhibition of VEGF-induced VEGFR2 autophosphorylation in HUVEC cells (ELISA); format: cell-based; details: 50 ng/ml human VEGF, compound 1 h
From the text: Vascular endothelial growth factor receptor 2 (VEGFR2) is a primary receptor for VEGF-induced endothelial cell signaling. After ligand binding, VEGFR2 is autophosphorylated and activated. The main function of signaling from VEGFR2 is to induce vascularization during development and after tissue injury, and to bypass blocked blood vessels. Pathologically, VEGF and VEGFR2 are involved in tumor angiogenesis and vascular leakage. They are considered to be main participants in many different cancers and ocular diseases that accompany pathological neovascularization. This assay measured the ability of the compounds to inhibit VEGF-induced VEGFR2 autophosphorylation (pVEGFR2) in HUVEC cells by using ELISA.
Culture cells in a cell culture flask to reach a fusion degree of 60%-80% before cell inoculation. Dilute the cell suspension to […] with a pre-warmed complete medium. Add 80 μL of the cell suspension to all wells of a 96-well cell plate (Corning-3599); and incubate the plate overnight at 37° C. in the presence of 5% CO2. Dissolve the compound powder to 10 mM with DMSO and store it in a nitrogen cabinet. Compound dilution plate: Add a reference compound Ponatinib or a compound to be tested to a 96 V-well plate (Axygen-WIpp 2280) at concentrations achieved as follows: performing 3-fold gradient dilution starting from 5 mM (5 μL of 10 mM compound solution plus 5 μL of DMSO) for a total of 8 concentration points. […] Transfer 20 μL of the diluted compound from the intermediate plate to a cell plate. Then, incubate the cell plate for 1 h at 37° C. in the presence of 5% CO2. After the compound was treated for 1 h, add 25 μL of 250 ng/ml human VEGF at a final concentration of 50 ng/ml to a 96-well plate; and incubate the plate for 5 min at 37° C. in the presence of 5% CO2, centrifuge the plate for 10 min at 3,000 rpm, remove the medium and wash the cells once with 300 μL of pre-chilled DPBS per well. Then, centrifuge the plate for 10 min at 4,000 rpm, remove DPBS, and add 110 μL of pre-chilled 1× cell lysis buffer per well to the 96-well plate. Shake the plate for 40 min at 4° C. Then, freeze the plate in a refrigerator at −80° C. On the next day, remove the plate from the refrigerator at −80° C., thaw the plate, centrifuge the plate for 10 min at 3500 rpm, and add 100 μL of the supernatant per well to an ELISA plate. Seal the plate and incubate it for 2 h at 37° C. Wash the wells 4 times with 1× wash buffer. Add 100 μL of recombinant detection antibody per well. Seal the plate, incubate the plate for 1 h at 37° C., and repeat the step of plate washing. Add 100 μL of secondary antibody per well. Seal the plate, incubate the plate for 30 min at 37° C., and repeat the step of plate washing. Add 100 μL of TMB (protected from light) per well. Seal the plate, incubate the plate for 30 min at 37° C., and add 100 μL of the stop solution per well. Gently shake for 30 sec, measure the absorbance with a SpectraMax® 340 PC 384 Absorbance Microplate Reader within 30 min, and read an optical density value at 450 nm. Conduct data analysis using XL Fit software:
Conduct curve fitting using the 4 Parameter Logistic Model or Sigmoidal Dose-Response Model:
X indicating the log value of compound concentration, Y indicating the inhibition ratio (% inhibition), Top indicating the readout of the negative control wells, and bottom indicating the readout of the positive control well.

KDR (VEGFR2) = KDR (VEGFR2) (Homo sapiens (Human), UniProt P35968); assay: Kinase inhibition, Mobility Shift Assay (VEGFR2); format: biochemical
In short: (§1)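 Mobility shift assay: each kinase preincubated 10 min at room temperature with compound, then reacted with FAM-labeled peptide, MgCl2 and ATP at 28° C. for varying times. Substrate-to-product conversion read on Caliper; % inhibition normalised to no-kinase and DMSO controls, and IC50 fitted.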

EGFR = EGFR (Homo sapiens (Human), UniProt P00533); assay: Kinase inhibition, Mobility Shift Assay (EGFR); format: biochemical
In short: as §1

melanin = assay: Binding capacity of compounds to melanin; format: in vitro ADME; details: Sepia officinalis (cuttlefish), melanin suspension (1 mg/mL); 1 mg/mL melanin suspension in PBS pH 7.4, 2 μM compound, 2 h at 37° C.; read-out: Fu % (percentage of free drug, not bound to melanin)
In short: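 Compound at 2 μM final incubated with 1 mg/mL Sepia melanin suspension in PBS pH 7.4 for 2 h at 37 °C with shaking; blank control in PBS with 0.1% BSA. Supernatant concentrations measured by LC-MS/MS; bound fraction from melanin versus control samples, free fraction as 100 − Fb.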

EGFR, sequence (P00533 25-1210): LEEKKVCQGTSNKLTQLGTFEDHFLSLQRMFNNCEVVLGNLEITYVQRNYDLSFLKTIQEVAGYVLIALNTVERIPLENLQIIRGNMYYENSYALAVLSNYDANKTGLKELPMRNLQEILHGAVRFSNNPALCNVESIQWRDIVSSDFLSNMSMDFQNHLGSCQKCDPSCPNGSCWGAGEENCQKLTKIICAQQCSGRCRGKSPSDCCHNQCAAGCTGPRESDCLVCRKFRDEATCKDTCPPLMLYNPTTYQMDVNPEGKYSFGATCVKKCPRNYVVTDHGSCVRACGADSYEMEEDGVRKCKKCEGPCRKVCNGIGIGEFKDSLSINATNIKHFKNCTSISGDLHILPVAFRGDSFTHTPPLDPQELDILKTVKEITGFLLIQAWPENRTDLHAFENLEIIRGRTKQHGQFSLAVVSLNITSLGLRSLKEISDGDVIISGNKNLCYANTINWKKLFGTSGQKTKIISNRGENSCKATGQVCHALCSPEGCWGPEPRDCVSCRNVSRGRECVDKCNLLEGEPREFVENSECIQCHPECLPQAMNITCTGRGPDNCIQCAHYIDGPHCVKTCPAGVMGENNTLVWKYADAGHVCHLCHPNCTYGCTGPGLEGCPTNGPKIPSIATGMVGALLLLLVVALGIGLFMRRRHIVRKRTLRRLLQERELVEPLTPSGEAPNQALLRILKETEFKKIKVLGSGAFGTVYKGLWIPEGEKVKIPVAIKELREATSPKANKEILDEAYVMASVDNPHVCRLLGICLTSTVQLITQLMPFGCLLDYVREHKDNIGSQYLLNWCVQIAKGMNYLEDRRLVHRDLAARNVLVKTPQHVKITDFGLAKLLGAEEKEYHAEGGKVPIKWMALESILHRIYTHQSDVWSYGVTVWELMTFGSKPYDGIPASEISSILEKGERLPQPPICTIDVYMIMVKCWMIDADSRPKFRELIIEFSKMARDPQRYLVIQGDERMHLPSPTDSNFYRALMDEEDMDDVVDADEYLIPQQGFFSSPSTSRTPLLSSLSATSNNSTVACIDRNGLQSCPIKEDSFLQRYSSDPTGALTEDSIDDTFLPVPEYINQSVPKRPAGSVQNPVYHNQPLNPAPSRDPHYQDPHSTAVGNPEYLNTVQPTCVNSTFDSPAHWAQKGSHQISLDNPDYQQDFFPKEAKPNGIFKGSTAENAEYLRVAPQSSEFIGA
VEGFR2 autophosphorylation (pVEGFR2) in HUVEC cells, sequence (P35968 20-1356): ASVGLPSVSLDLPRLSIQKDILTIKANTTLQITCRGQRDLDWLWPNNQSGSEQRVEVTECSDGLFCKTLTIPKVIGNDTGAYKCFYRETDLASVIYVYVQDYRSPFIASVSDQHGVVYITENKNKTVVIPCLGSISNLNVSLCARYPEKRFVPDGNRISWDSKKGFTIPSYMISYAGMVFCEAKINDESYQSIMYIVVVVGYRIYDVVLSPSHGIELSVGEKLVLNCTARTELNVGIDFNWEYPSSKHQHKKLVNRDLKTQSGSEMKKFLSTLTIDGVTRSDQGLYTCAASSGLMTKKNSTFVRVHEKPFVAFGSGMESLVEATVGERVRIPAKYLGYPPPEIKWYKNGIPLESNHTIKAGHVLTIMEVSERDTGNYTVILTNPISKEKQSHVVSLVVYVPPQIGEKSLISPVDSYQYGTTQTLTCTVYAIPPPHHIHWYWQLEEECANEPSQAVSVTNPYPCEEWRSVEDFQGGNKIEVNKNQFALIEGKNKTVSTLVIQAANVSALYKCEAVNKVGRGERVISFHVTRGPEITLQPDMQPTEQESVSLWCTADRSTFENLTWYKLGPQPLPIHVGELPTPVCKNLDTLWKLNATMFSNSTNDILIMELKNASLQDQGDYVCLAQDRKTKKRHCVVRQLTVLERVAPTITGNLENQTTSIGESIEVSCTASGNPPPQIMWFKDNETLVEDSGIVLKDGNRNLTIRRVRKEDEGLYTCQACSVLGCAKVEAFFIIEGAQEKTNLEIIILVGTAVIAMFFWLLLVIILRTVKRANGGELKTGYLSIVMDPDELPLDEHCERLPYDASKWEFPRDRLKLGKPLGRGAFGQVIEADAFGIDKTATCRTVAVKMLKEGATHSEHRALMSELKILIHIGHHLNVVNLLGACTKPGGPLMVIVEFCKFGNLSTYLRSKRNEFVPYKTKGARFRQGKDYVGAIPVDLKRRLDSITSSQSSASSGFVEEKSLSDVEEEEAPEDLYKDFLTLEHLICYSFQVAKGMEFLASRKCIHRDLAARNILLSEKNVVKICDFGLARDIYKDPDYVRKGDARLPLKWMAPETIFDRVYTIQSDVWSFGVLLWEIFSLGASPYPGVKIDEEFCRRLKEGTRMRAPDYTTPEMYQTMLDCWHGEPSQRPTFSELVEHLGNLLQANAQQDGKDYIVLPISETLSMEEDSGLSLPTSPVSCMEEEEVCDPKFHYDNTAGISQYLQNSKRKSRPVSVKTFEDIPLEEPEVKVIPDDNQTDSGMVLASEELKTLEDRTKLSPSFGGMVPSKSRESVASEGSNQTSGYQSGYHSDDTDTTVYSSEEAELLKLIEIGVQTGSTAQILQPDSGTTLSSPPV
KDR (VEGFR2), sequence (P35968 790-1356): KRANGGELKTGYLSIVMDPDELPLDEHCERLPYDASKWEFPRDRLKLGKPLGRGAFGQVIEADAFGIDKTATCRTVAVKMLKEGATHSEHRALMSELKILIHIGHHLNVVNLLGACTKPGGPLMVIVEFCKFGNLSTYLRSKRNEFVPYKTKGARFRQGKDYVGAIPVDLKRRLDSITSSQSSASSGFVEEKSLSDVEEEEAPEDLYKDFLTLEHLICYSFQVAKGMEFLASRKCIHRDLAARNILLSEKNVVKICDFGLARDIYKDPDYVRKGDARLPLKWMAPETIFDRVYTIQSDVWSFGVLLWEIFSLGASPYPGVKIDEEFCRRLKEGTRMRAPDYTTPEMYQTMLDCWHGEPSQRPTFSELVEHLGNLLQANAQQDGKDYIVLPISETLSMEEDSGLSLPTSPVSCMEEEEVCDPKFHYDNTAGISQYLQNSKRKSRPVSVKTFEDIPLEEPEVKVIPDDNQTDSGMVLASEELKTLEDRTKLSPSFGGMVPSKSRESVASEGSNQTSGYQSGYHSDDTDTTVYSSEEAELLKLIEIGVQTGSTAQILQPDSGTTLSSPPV

Row | Structure (SMILES) | IC50 [1] | IC50 (KDR (VEGFR2)) | IC50 (EGFR) | fraction unbound at 2 h, 2 μM (melanin)
1 | CN1CCC(CCOc2ccc(/C=C/c3n[nH]c4cc(Sc5ccccc5C(=O)NC5CC5)ccc34)nc2)CC1 [Compound I-42, N-cyclopropyl-2-({3-[(E)-2-{5-[2-(1-methylpiperidin-4-yl)ethoxy]pyridin-2-yl}vinyl]-1H-indazol-6-yl}thio)benzamide] | ≤ 1 nM | ≤ 1 nM | > 60000 nM | 0.01 to 0.05
2 | O=C(NC1CC1)c1cccc(F)c1Sc1ccc2c(/C=C/c3ccc(CN4CCCC4)cn3)n[nH]c2c1 [Compound I-67] | ≤ 1 nM | 1 to 10 nM | 6000 to 60000 nM | > 0.05
3 | CCN(CC)Cc1ccc(/C=C/c2n[nH]c3cc(Sc4ccccc4C(=O)NC4CC4)ccc23)nc1 [Compound I-78, N-cyclopropyl-2-({3-[(E)-2-{5-[(diethylamino)methyl]pyridin-2-yl}vinyl]-1H-indazol-6-yl}thio)benzamide] | ≤ 1 nM | ≤ 1 nM | 6000 to 60000 nM | 0.01 to 0.05
4 | O=C(NC1CC1)c1cc(F)ccc1Sc1ccc2c(/C=C/c3ccc(CN4CCCC4)cn3)n[nH]c2c1 [Compound I-80, N-cyclopropyl-5-fluoro-2-({3-[(E)-2-{5-[(pyrrolidin-1-yl)methyl]pyridin-2-yl}vinyl]-1H-indazol-6-yl}thio)benzamide] | ≤ 1 nM | ≤ 1 nM | 6000 to 60000 nM | 0.01 to 0.05
5 | CCN(CC)Cc1ccc(/C=C/c2n[nH]c3cc(Sc4cc(F)ccc4C(=O)NC4CC4)ccc23)nc1 [Compound I-83, N-cyclopropyl-2-({3-[(E)-2-{5-[(diethylamino)methyl]pyridin-2-yl}vinyl]-1H-indazol-6-yl}thio)-4-fluorobenzamide] | ≤ 1 nM | ≤ 1 nM | 6000 to 60000 nM | > 0.05
6 | CCN(CC)Cc1ccc(/C=C/c2n[nH]c3cc(Sc4ccc(F)cc4C(=O)NC4CC4)ccc23)nc1 [Compound I-84, N-cyclopropyl-2-({3-[(E)-2-{5-[(diethylamino)methyl]pyridin-2-yl}vinyl]-1H-indazol-6-yl}thio)-5-fluorobenzamide] | ≤ 1 nM | 1 to 10 nM | 6000 to 60000 nM | > 0.05

The next lines start with the values.

Row | IC50 [1] | IC50 (KDR (VEGFR2)) | IC50 (EGFR) | fraction unbound at 2 h, 2 μM (melanin) | Structure (SMILES)
7 | ≤ 1 nM | ≤ 1 nM | 6000 to 60000 nM | 0.01 to 0.05 | O=C(NC1CC1)c1ccccc1Sc1ccc2c(/C=C/c3cnn(CCCN4CCCC4)c3)n[nH]c2c1 [Compound I-43, N-cyclopropyl-2-({3-[(E)-2-{1-[3-(pyrrolidin-1-yl)propyl]-1H-pyrazol-4-yl}vinyl]-1H-indazol-6-yl}thio)benzamide]
8 | ≤ 1 nM | ≤ 1 nM | 6000 to 60000 nM | 0.01 to 0.05 | O=C(NC1CC1)c1ccccc1Sc1ccc2c(/C=C/c3ccc(CCN4CCCC4)cn3)n[nH]c2c1 [Compound I-55, N-cyclopropyl-2-({3-[(E)-2-{5-[2-(pyrrolidin-1-yl)ethyl]pyridin-2-yl}vinyl]-1H-indazol-6-yl}thio)benzamide]
9 | ≤ 1 nM | ≤ 1 nM | 6000 to 60000 nM | 0.01 to 0.05 | O=C(NC1CC1)c1ccccc1Sc1ccc2c(/C=C/c3ccc(CCCN4CCCC4)cn3)n[nH]c2c1 [Compound I-59, N-cyclopropyl-2-({3-[(E)-2-{5-[3-(pyrrolidin-1-yl)propyl]pyridin-2-yl}vinyl]-1H-indazol-6-yl}thio)benzamide]
10 | ≤ 1 nM | 1 to 10 nM | 6000 to 60000 nM | 0.01 to 0.05 | O=C(NC1CC1)c1ccccc1Sc1ccc2c(/C=C/c3cnn(CCN4CCCC4)c3)n[nH]c2c1 [Compound I-61, N-cyclopropyl-2-({3-[(E)-2-{1-[2-(pyrrolidin-1-yl)ethyl]-1H-pyrazol-4-yl}vinyl]-1H-indazol-6-yl}thio)benzamide]
